Measured values reported in patent publication US12569463B2, “Method for treating diabetes” (Olatec Therapeutics, Inc., priority 2020, dated 2026).

Experiment: Fasting glucose in diabetic subjects of the clinical study of oral dapansutrile capsules in NYHA II-III systolic heart failure
Format: in vivo, human
[1] = Day 28, 1000 mg per day oral, N = 4
[2] = Day 28, 2000 mg per day oral, N = 4
[3] = Day 28, all dapansutrile subjects pooled, N = 14

## CS(=O)(=O)CCC#N [Dapansutrile, 3-methanesulfonylpropionitrile]
500 mg, 1000 mg, 2000 mg per day
  dose response of fasting glucose change (in words): trend of dose response
2000 mg treatment, Day 14
  mean fast glucose level decrease from the baseline level: 43.5 mg/dL
Day 14 (last day of treatment), 500 mg daily oral, diabetic patients N = 6
  Fasting Glucose Level, Change from Baseline, Mean: -20.0 mg/dL
Day 14, 500 mg daily oral, N = 6
  Fasting Glucose Level, Change from Baseline, Median: -18.5 mg/dL
Day 14, 1000 mg per day (500 mg twice a day) oral, diabetic patients N = 4
  Fasting Glucose Level, Change from Baseline, Mean: -16.5 mg/dL
Day 14, 1000 mg per day oral, N = 4
  Fasting Glucose Level, Change from Baseline, Median: -16.5 mg/dL
Day 14, 2000 mg per day (500 mg 4 times a day) oral, diabetic patients N = 4
  Fasting Glucose Level, Change from Baseline, Mean: -43.5 mg/dL
Day 14, 2000 mg per day oral, N = 4
  Fasting Glucose Level, Change from Baseline, Median: -47.5 mg/dL
Day 14, all dapansutrile subjects pooled (500-2000 mg), N = 14
  Fasting Glucose Level, Change from Baseline, Mean: -25.7 mg/dL
Day 14, all dapansutrile subjects pooled, N = 14
  Fasting Glucose Level, Change from Baseline, Median: -32.5 mg/dL
Day 14, all dapansutrile-treated subjects, p value of 0.029
  decrease of glucose level from the baseline level (in words): statistically significant decrease
Day 28 (14 days after last treatment), 500 mg daily oral, N = 6
  Fasting Glucose Level, Change from Baseline, Mean: 25.8 mg/dL
Day 28, 14 days after the last treatment
  drug effect on fasting glucose (in words): the drug effect was gone
Day 28, 500 mg daily oral, N = 6
  Fasting Glucose Level, Change from Baseline, Median: -1.5 mg/dL
[1]
  Fasting Glucose Level, Change from Baseline, Mean: 7.3 mg/dL
  Fasting Glucose Level, Change from Baseline, Median: -7.0 mg/dL
[2]
  Fasting Glucose Level, Change from Baseline, Mean: -18.0 mg/dL
  Fasting Glucose Level, Change from Baseline, Median: -21.5 mg/dL
[3]
  Fasting Glucose Level, Change from Baseline, Mean: 8.0 mg/dL
  Fasting Glucose Level, Change from Baseline, Median: -8.0 mg/dL
